{"source": "patent US11370763B2", "about": "“Compounds and compositions for treating conditions associated with NLRP activity” (Novartis AG, priority 2017, dated 2022)", "test_system": "IL-1β production in PMA-differentiated THP-1 cells", "experiment": "IL-1β production in PMA-differentiated THP-1 cells stimulated with gramicidin (hTHP-1 assay containing 2% fetal bovine serum; Procedures 1-3)", "assay_type": "cell-based, human", "settings": "read-out: hTHP-1 IC50 (Average IC50 of compounds in hTHP-1 assay)", "description": "The following protocol is suitable for testing the activity of the compounds disclosed herein.\nProcedure 1: IL-1β Production in PMA-Differentiated THP-1 Cells Stimulated with Gramicidin\nTHP-1 cells were purchased from the American Type Culture Collection and sub-cultured according to instructions from the supplier. Cells were cultured in complete RPMI 1640 (containing 10% heat inactivated FBS, penicillin (100 units/ml) and streptomycin (100 μg/ml)), and maintained in log phase prior to experimental setup. Prior to the experiment, compounds were dissolved in dimethyl sulfoxide (DMSO) to generate a 30 mM stock. The compound stock was first pre-diluted in DMSO to 3, 0.34, 0.042 and 0.0083 mM intermediate concentrations and subsequently spotted using Echo550 liquid handler into an empty 384-well assay plate to achieve desired final concentration (e.g. 100, 33, 11, 3.7, 1.2, 0.41, 0.14, 0.046, 0.015, 0.0051, 0.0017 μM). DMSO was backfilled in the plate to achieve a final DMSO assay concentration of 0.37%. The plate was then sealed and stored at room temperature until required.\nTHP-1 cells were treated with PMA (Phorbol 12-myristate 13-acetate) (20 ng/ml) for 16-18 hours. On the day of the experiment the media was removed and adherent cells were detached with trypsin for 5 minutes. Cells were then harvested, washed with complete RPMI 1640, spun down, and resuspended in RPMI 1640 (containing 2% heat inactivated FBS, penicillin (100 units/ml) and streptomycin (100 μg/ml). The cells were plated in the 384-well assay plate containing the spotted compounds at a density of 50,000 cells/well (final assay volume 50 μl). Cells were incubated with compounds for 1 hour and then stimulated with gramicidin (5 μM) (Enzo) for 2 hours. Plates were then centrifuged at 340 g for 5 min. Cell free supernatant (40 μL) was collected using a 96-channel PlateMaster (Gilson) and the production of IL-1β was evaluated by HTRF (cisbio). The plates were incubated for 18 h at 4° C. and read using the preset HTRF program (donor emission at 620 nm, acceptor emission at 668 nm) of the SpectraMax i3x spectrophotometer (Molecular Devices, software SoftMax 6). A vehicle only control and a dose titration of CRID3 (100-0.0017 μM) were run concurrently with each experiment.\nProcedure 2: IL-1β Production in PMA-Differentiated THP-1 Cells Stimulated with Gramicidin\nTHP-1 cells were purchased from the American Type Culture Collection and sub-cultured according to instructions from the supplier. Prior to experiments, cells were cultured in complete RPMI 1640 (containing 10% heat inactivated FBS, penicillin (100 units/ml) and streptomycin (100 μg/ml)), and maintained in log phase prior to experimental setup. Prior to the experiment THP-1 were treated with PMA (Phorbol 12-myristate 13-acetate) (20 ng/ml) for 16-18 hours. Compounds were dissolved in dimethyl sulfoxide (DMSO) to generate a 30 mM stock. On the day of the experiment the media was removed and adherent cells were detached with trypsin for 5 minutes. Cells were then harvested, washed with complete RPMI 1640, spun down, resuspended in RPMI 1640 (containing 2% heat inactivated FBS, penicillin (100 units/ml) and streptomycin (100 μg/ml). The cells were plated in a 384-well plate at a density of 50,000 cells/well (final assay volume 50 μl). Compounds were first dissolved in assay medium to obtain a 5× top concentration of 500 μM. 10 step dilutions (1:3) were then undertaken in assay medium containing 1.67% DMSO. 5× compound solutions were added to the culture medium to achieve desired final concentration (e.g. 100, 33, 11, 3.7, 1.2, 0.41, 0.14, 0.046, 0.015, 0.0051, 0.0017 μM). Final DMSO concentration was at 0.37%. Cells were incubated with compounds for 1 hour and then stimulated with gramicidin (5 μM) (Enzo) for 2 hours. Plates were then centrifuged at 340 g for 5 min. Cell free supernatant (40 μL) was collected using a 96-channel PlateMaster (Gilson) and the production of IL-1β was evaluated by HTRF (cisbio). […]", "key": {"[1]": {"settings": "hTHP-1 assay containing 2% fetal bovine serum, class symbols"}, "[2]": {"settings": "Homo sapiens, THP-1, hTHP-1 assay containing 2% fetal bovine serum, class symbols"}, "[3]": {"settings": "Homo sapiens, THP-1, hTHP-1 assay containing 2% fetal bovine serum, given as numeric bound"}}, "note": "pIC50: −log10 of the molar value. Where two headings read alike, the source gives them in different places."}
{"smiles": "CC(C)c1cc(OC(F)F)cc(C(C)C)c1CC(=O)N=S(N)(=O)c1sc(C(C)(C)O)cc1F", "note": "(single isomer, unassigned) [Example 76, (S)- or (R)-2-(4-(difluoromethoxy)-2,6-diisopropylphenyl)-N-(3-fluoro-5-(2-hydroxypropan-2-yl)thiophen-2-ylsulfonimidoyl)acetamide]", "values": [{"measurement": "pIC50", "setting": "[1]", "result": "6.70 to 7.40"}]}
{"smiles": "CCc1cc(OC(F)F)cc(C(C)C)c1CC(=O)N=S(N)(=O)c1sc(C(C)(C)O)cc1F", "note": "(single isomer, unassigned) [Example 78, (S)- or (R)-2-(4-(difluoromethoxy)-2-ethyl-6-isopropylphenyl)-N-(3-fluoro-5-(2-hydroxypropan-2-yl)thiophen-2-ylsulfonimidoyl)acetamide]", "values": [{"measurement": "pIC50", "setting": "[1]", "result": "6.00 to 6.70"}]}
{"smiles": "CC(C)c1cc(C#N)cc(C(C)C)c1CC(=O)N=S(N)(=O)c1ccc(C(C)(C)O)cc1Cl", "note": "(single isomer, unassigned) [Example 155, (R) or (S)-N-(amino(2-chloro-4-(2-hydroxypropan-2-yl)phenyl)(oxo)-λ^6-sulfaneylidene)-2-(4-cyano-2,6-diisopropylphenyl)acetamide]", "values": [{"measurement": "pIC50", "setting": "[2]", "result": "6.00 to 6.70"}]}
{"smiles": "CC(C)c1cc(C#N)cc(C(C)C)c1CC(=O)N=S(N)(=O)c1ccc(C(C)(C)O)cc1Cl", "note": "(single isomer, unassigned) [Example 156, (S) or (R)-N-(amino(2-chloro-4-(2-hydroxypropan-2-yl)phenyl)(oxo)-λ^6-sulfaneylidene)-2-(4-cyano-2,6-diisopropylphenyl)acetamide]", "values": [{"measurement": "pIC50", "setting": "[1]", "result": "6.00 to 6.70"}]}
{"smiles": "CC(C)c1ccc(F)c(C(C)C)c1CC(=O)N=S(N)(=O)c1cc(C(C)(C)O)cs1", "note": "(single isomer, unassigned) [Example 159, (R) or (S)-N-(amino(4-(2-hydroxypropan-2-yl)thiophen-2-yl)(oxo)-λ^6-sulfaneylidene)-2-(3-fluoro-2,6-diisopropylphenyl)acetamide]", "values": [{"measurement": "pIC50", "setting": "[1]", "result": "6.70 to 7.40"}]}
{"smiles": "CC(C)c1cc(-c2ccc3c(c2)OC(F)(F)O3)cc(C(C)C)c1CC(=O)N=S(N)(=O)c1ncc(C(C)(C)O)s1", "note": "(single isomer, unassigned) [Example 166, (R) or (S)-N-(amino(5-(2-hydroxypropan-2-yl)thiazol-2-yl)(oxo)-λ^6-sulfaneylidene)-2-(4-(2,2-difuorobenzo[d][1,3]dioxol-5-yl)-2,6-diisopropylphenyl)acetamide]", "values": [{"measurement": "pIC50", "setting": "[1]", "result": "6.70 to 7.40"}]}
{"smiles": "Cc1ccc(-c2cc(C(C)C)c(CC(=O)N=S(N)(=O)c3ncc(C(C)(C)O)s3)c(C(C)C)c2)cc1C", "note": "(single isomer, unassigned) [Example 168, (R) or (S)-N-(amino(5-(2-hydroxypropan-2-yl)thiazol-2-yl)(oxo)-λ^6-sulfaneylidene)-2-(3,5-diisopropyl-3′,4′-dimethyl-[1,1′-biphenyl]-4-yl)acetamide]", "values": [{"measurement": "pIC50", "setting": "[1]", "result": "6.00 to 6.70"}]}
{"smiles": "CC(C)c1cc(-c2ccc(Cl)c(Cl)c2)cc(C(C)C)c1CC(=O)N=S(N)(=O)c1ncc(C(C)(C)O)s1", "note": "(single isomer, unassigned) [Example 170, (R) or (S)-N-(amino(5-(2-hydroxypropan-2-yl)thiazol-2-yl)(oxo)-λ^6-sulfaneylidene)-2-(3′,4′-dichloro-3,5-diisopropyl-[1,1′-biphenyl]-4-yl)acetamide]", "values": [{"measurement": "pIC50", "setting": "[1]", "result": "6.00 to 6.70"}]}
{"smiles": "CC(C)c1cc(-c2ccc3c(c2)COCC3)cc(C(C)C)c1CC(=O)N=S(N)(=O)c1cnc(C(C)(C)O)s1", "note": "(single isomer, unassigned) [Example 171, (R) or (S)-N-(amino(2-(2-hydroxypropan-2-yl)thiazol-5-yl)(oxo)-λ^6-sulfaneylidene)-2-(4-(isochroman-7-yl)-2,6-diisopropylphenyl)acetamide]", "values": [{"measurement": "pIC50", "setting": "[1]", "result": "6.00 to 6.70"}]}
{"smiles": "CC(C)c1ccc(F)c(C(C)C)c1CC(=O)N=S(N)(=O)c1ccc(C(C)(C)O)s1", "note": "(single isomer, unassigned) [Example 176, (R) or (S)-N-(amino(5-(2-hydroxypropan-2-yl)thiophen-2-yl)(oxo)-λ^6-sulfaneylidene)-2-(3-fluoro-2,6-diisopropylphenyl)acetamide]", "values": [{"measurement": "pIC50", "setting": "[1]", "result": "6.00 to 6.70"}]}
{"smiles": "CC(C)c1ccc(C#N)c(C(C)C)c1CC(=O)N=S(N)(=O)c1nc(C(C)(C)O)cs1", "note": "(single isomer, unassigned) [Example 179, (R) or (S)-N-(amino(4-(2-hydroxypropan-2-yl)thiazol-2-yl)(oxo)-λ^6-sulfaneylidene)-2-(3-cyano-2,6-diisopropylphenyl)acetamide]", "values": [{"measurement": "pIC50", "setting": "[1]", "result": "6.00 to 6.70"}]}
{"smiles": "COCc1cc(C(C)C)c(CC(=O)N=S(N)(=O)c2ncc(C(C)(C)O)s2)c(C(C)C)c1", "note": "(single isomer, unassigned) [Example 185, (R) or (S)-N-(amino(5-(2-hydroxypropan-2-yl)thiazol-2-yl)(oxo)-λ^6-sulfaneylidene)-2-(2,6-diisopropyl-4-(methoxymethyl)phenyl) acetamide]", "values": [{"measurement": "pIC50", "setting": "[1]", "result": "6.70 to 7.40"}]}
{"smiles": "CC(C)c1cc2c(c(C(C)C)c1CC(=O)N=S(N)(=O)c1ccc(CN(C)C)cc1)COC2", "note": "(single isomer, unassigned) [Example 191, (R) or (S)-N-(amino(4-((dimethylamino)methyl)phenyl) (oxo)-λ^6-sulfaneylidene)-2-(4,6-diisopropyl-1,3-dihydroisobenzofuran-5-yl)acetamide]", "values": [{"measurement": "pIC50", "setting": "[2]", "result": "5.30 to 6.00"}]}
{"smiles": "CC(C)c1cc2c(c(C(C)C)c1CC(=O)N=S(N)(=O)c1ccc(CN(C)C)cc1)COC2", "note": "(single isomer, unassigned) [Example 192, (S) or (R)-N-(amino(4-((dimethylamino)methyl)phenyl) (oxo)-λ^6-sulfaneylidene)-2-(4,6-diisopropyl-1,3-dihydroisobenzofuran-5-yl)acetamide]", "values": [{"measurement": "pIC50", "setting": "[3]", "result": "< 4.52"}]}
{"smiles": "CC(C)c1cc(F)cc(C(C)C)c1C(C)C(=O)N=S(N)(=O)c1cnc(C(C)(C)O)s1", "note": "(single isomer, unassigned) [Example 194, (R, S) or (R, R)-N-(amino(2-(2-hydroxypropan-2-yl)thiazol-5-yl)(oxo)-λ^6-sulfaneylidene)-2-(4-fluoro-2,6-diisopropylphenyl) propanamide]", "values": [{"measurement": "pIC50", "setting": "[2]", "result": "4.52 to 5.30"}]}
{"smiles": "CC(C)c1cc(F)cc(C(C)C)c1C(C)C(=O)N=S(N)(=O)c1cnc(C(C)(C)O)s1", "note": "(single isomer, unassigned) [Example 195, (R, R) or (R, S)-N-(amino(2-(2-hydroxypropan-2-yl)thiazol-5-yl)(oxo)-λ^6-sulfaneylidene)-2-(4-fluoro-2,6-diisopropylphenyl) propanamide]", "values": [{"measurement": "pIC50", "setting": "[3]", "result": "< 4.52"}]}
{"smiles": "CC(C)(O)c1ncc(S(N)(=O)=NC(=O)Cc2c(C3CC3)cc(F)cc2C(F)(F)F)s1", "note": "(single isomer, unassigned) [Example 196, (R) or (S)-N-(amino(2-(2-hydroxypropan-2-yl)thiazol-5-yl)(oxo)-λ^6-sulfaneylidene)-2-(2-cyclopropyl-4-fluoro-6-(trifluoromethyl)phenyl) acetamide]", "values": [{"measurement": "pIC50", "setting": "[2]", "result": "4.52 to 5.30"}]}
{"smiles": "CC(C)(O)c1ncc(S(N)(=O)=NC(=O)Cc2c(C3CC3)cc(F)cc2C(F)(F)F)s1", "note": "(single isomer, unassigned) [Example 197, (S) or (R)-N-(amino(2-(2-hydroxypropan-2-yl)thiazol-5-yl)(oxo)-λ^6-sulfaneylidene)-2-(2-cyclopropyl-4-fluoro-6-(trifluoromethyl)phenyl) acetamide]", "values": [{"measurement": "pIC50", "setting": "[3]", "result": "< 4.52"}]}
